Source: patent publication US5153207A, “Piperidine derivative, method for preparation thereof, and a pharmaceutical composition comprising the same” (Hokuriku Pharmaceutical Co., Ltd., priority 1989, dated 1992)
Where a name gives a salt, the structure may show the parent alone.

Assays:
[1] = tested on: passive cutaneous anaphylaxis (PCA) in rats; assay: 48 hr homologous passive cutaneous anaphylaxis (PCA) in rats; type: in vivo, male Wistar rats; conditions: 1 hr prior to challenge with antigen; for inhibition in vivo at 1 mg/kg: Rattus norvegicus, po, read-out: the percent inhibition of PCA in rats
Protocol: The following compounds were used as the reference compounds. 1.48 hr homologous passive cutaneous anaphylaxis (PCA) in rats a) Preparation of DNP-As and rat anti-DNP-As serum Ascaris extract coupled with 2,4-dinitrophenyl group (DNP-As) was prepared by the method of Koda et al. (Folia pharmacol. japon., 78, 319-334, 1981) and anti-DNP-As containing IgE antibody serum was prepared by the method of Tada and Okumura (J. Immunol., 106, 1019-1025, 1971). […] b) 48 hr homologous passive cutaneous anaphylaxis (PCA) in rats Male Wistar rats weighing 160 to 220 g were sensitized passively by intradermal injection in the back, of 0.05 ml of anti-DNP-As serum, diluted 21-fold with saline. […] After additional thirty minutes, the animals were killed by stunning and the skins were removed. The intensity of the response was evaluated by assaying the amount of dye leaked according to the method of Katayama et al. (Microbiol. Immunol., 22, 89-101, 1978). […] Test compounds were given orally in a dose 1.0 mg/kg 1 hr prior to challenge with antigen. As a control, 5 ml/kg of vehicle (0.5% CMC) alone were given in a similar manner.

[2] = tested on: hexobarbital-induced anesthesia in mice; design: species or system male ddY mice; conditions: mouse, in vivo
Excerpt: The results of 48 hr homologous passive cutaneous anaphylaxis (PCA) in rats with the monitoring of antiallergic activity and potentiation of hexobarbital-induced anesthesia in mice with the monitoring of central nervous depressive activity are summarized in Table 1. The following compounds were used as the reference compounds.
2. Potentiation of hexobarbital-induced anesthesia in mice
The loss of righting reflex induced by hexobarbital was used as an index of anesthesia. Groups of eight male ddY mice (20-24 hr fasted) weighing 19 to 27 g were treated orally with the test compounds (30 mg/kg) or vehicle. Thirty minutes later, 80 mg/kg of hexobarbital sodium were injected i.p. to the animals and the duration of loss of righting reflex was observed. The percent increase of sleeping time was calculated using the following formula: [formula]

Compound	inhibition in vivo at 1 mg/kg [1]	the percent increase of hexobarbital-induced anesthesia in mice [2]	the percent inhibition of PCA in rats ([1]; 1 mg/kg, p.o., hydrochloride)
COC(=O)CCCCCN1CCC(OC(c2ccccc2)c2ccc(C)cc2)CC1.Cl (racemic) [Example 1, (±)-Methyl 4-[(4-methylphenyl)phenylmethoxy]-1-piperidinecaproate hydrochloride]	77%	16%	
Cc1ccc(C(OC2CCN(CCCCCC(=O)O)CC2)c2ccccc2)cc1.Cl (racemic) [Example 64, (±)-4-[(4-Methylphenyl)phenylmethoxy]-1-piperidinecaproic acid hydrochloride]	68%	-8%	
Cc1ccc(C(OC2CCN(CCC(=O)O)CC2)c2ccccc2)cc1.Cl (racemic) [Example 70, (±)-4-[(4-Methylphenyl)phenylmethoxy]-1-piperidinepropionic acid hydrochloride]	51%	-2%	
Cc1ccc(C(OC2CCN(CCCC(=O)O)CC2)c2ccccc2)cc1.Cl (racemic) [Example 71, (±)-4-[(4-Methylphenyl)phenylmethoxy]-1-piperidinebutyric acid hydrochloride]	65%	3%	
Cc1ccc(C(OC2CCN(CCCCC(=O)O)CC2)c2ccccc2)cc1.Cl (racemic) [Example 72, (±)-4-[(4-Methylphenyl)phenylmethoxy]-1-piperidinevaleric acid hydrochloride]	63%	12%	
Cc1ccc(C(OC2CCN(CCCCCCC(=O)O)CC2)c2ccccc2)cc1.Cl (racemic) [Example 73, (±)-4-[(4-Methylphenyl)phenylmethoxy]-1-piperidineheptanoic acid hydrochloride]	67%	2%	
Cc1ccc(C(OC2CCN(CCCCCCCC(=O)O)CC2)c2ccccc2)cc1.Cl (racemic) [Example 74, (±)-4-[(4-Methylphenyl)phenylmethoxy]-1-piperidineoctanoic acid hydrochloride]	59%	21%	
CCc1ccc(C(OC2CCN(CCCCCC(=O)O)CC2)c2ccccc2)cc1.Cl (racemic) [Example 77, (±)-4-[(4-Ethylphenyl)phenylmethoxy]-1-piperidinecaproic acid hydrochloride]	68%	24%	
COc1ccc(C(OC2CCN(CCC(=O)O)CC2)c2ccccc2)cc1.Cl (racemic) [Example 86, (±)-4-[(4-Methoxyphenyl)phenylmethoxy]-1-piperidinepropionic acid hydrochloride]	60%	4%	
COc1ccc(C(OC2CCN(CCCC(=O)O)CC2)c2ccccc2)cc1.Cl (racemic) [Example 87, (±)-4-[(4-Methoxyphenyl)phenylmethoxy]-1-piperidinebutyric acid hydrochloride]	54%	18%	
COc1ccc(C(OC2CCN(CCCCCC(=O)O)CC2)c2ccccc2)cc1.Cl (racemic) [Example 89, (±)-4-[(4-Methoxyphenyl)phenylmethoxy]-1-piperidinecaproic acid hydrochloride]	71%	20%	
Cl.O=C(O)CCCN1CCC(OC(c2ccccc2)c2ccccc2Cl)CC1 (racemic) [Example 112, (±)-4-[(2-Chlorophenyl)phenylmethoxy]-1-piperidinebutyric acid hydrochloride]	53%	29%	
Cl.O=C(O)CCCN1CCC(OC(c2ccccc2)c2ccc(F)cc2)CC1 (racemic) [Example 115, (±)-4-[(4-Fluorophenyl)phenylmethoxy]-1-piperidinebutyric acid hydrochloride]	73%	21%	
Cl.O=C(O)CCCCN1CCC(OC(c2ccccc2)c2ccc(F)cc2)CC1 (racemic) [Example 116, (±)-4-[(4-Fluorophenyl)phenylmethoxy]-1-piperidinevaleric acid hydrochloride]	83%	31%	
COC(=O)CCCCCN1CCC(OC(c2ccccc2)c2ccc(C)cc2)CC1.Cl (single isomer, unassigned; (+)) [Example 62, (+)-Methyl 4-[(4-methylphenyl)phenylmethoxy]-1-piperidinecaproate hydrochloride]	56%	29%	
Cc1ccc(C(OC2CCN(CCCCCC(=O)O)CC2)c2ccccc2)cc1.Cl (single isomer, unassigned; (+)) [Example 125, (+)-4-[(4-Methylphenyl)phenylmethoxy]-1-piperidinecaproic acid hydrochloride]	55%	29%	
Cc1ccc(C(OC2CCN(CCCCCC(=O)O)CC2)c2ccccc2)cc1.Cl (single isomer, unassigned; (-)) [Example 126, (-)-4-[(4-Methylphenyl)phenylmethoxy]-1-piperidinecaproic acid hydrochloride]		-1%	36%
Cl.O=C(O)CCN1CCC(OC(c2ccccc2)c2ccccc2)CC1 [Example 65, 4-(Diphenylmethoxy)-1-piperidinepropionic acid hydrochloride]	62%	29%	
Cl.O=C(O)CCCCN1CCC(OC(c2ccc(F)cc2)c2ccc(F)cc2)CC1 [Example 120, 4-[Bis(4-fluorophenyl)methoxy]-1-piperidinevaleric acid hydrochloride]	64%	-12%	
CN1CCC(OC(c2ccccc2)c2ccccc2)CC1 [Reference compound A, diphenylpyraline hydrochloride, reference compound]	-1%	75%	
CCOC(=O)Oc1ccc(C=CC=CC(=O)NCCN2CCC(OC(c3ccccc3)c3ccccc3)CC2)cc1OC [Reference compound B, N-[2-[4-(diphenylmethoxy)piperidino]ethyl]-5-[4-(ethoxycarbonyloxy)-3-methoxyphenyl]-2,4-pentadienoylamide, reference compound]	8%	35%	
